From patent US20080280303A1, “G-PROTEIN COUPLED RECEPTORS HIGH-[…]” (priority 2003, published 2008)

Legend:
Format in all cases: cell-based
EPAC = target: T1, EPAC (Homo sapiens, UniProt O95398); assay: R-SAT proliferation, EPAC co-expressed with ras/rapAA, with or without 8-Br cAMP; conditions: 250 uM 8-Br cAMP; ras/rapAA 20 ng per well
T1 construct: expressed in transfected cells; host or cells: NIH 3T3
T1 sequence (O95398 1-923): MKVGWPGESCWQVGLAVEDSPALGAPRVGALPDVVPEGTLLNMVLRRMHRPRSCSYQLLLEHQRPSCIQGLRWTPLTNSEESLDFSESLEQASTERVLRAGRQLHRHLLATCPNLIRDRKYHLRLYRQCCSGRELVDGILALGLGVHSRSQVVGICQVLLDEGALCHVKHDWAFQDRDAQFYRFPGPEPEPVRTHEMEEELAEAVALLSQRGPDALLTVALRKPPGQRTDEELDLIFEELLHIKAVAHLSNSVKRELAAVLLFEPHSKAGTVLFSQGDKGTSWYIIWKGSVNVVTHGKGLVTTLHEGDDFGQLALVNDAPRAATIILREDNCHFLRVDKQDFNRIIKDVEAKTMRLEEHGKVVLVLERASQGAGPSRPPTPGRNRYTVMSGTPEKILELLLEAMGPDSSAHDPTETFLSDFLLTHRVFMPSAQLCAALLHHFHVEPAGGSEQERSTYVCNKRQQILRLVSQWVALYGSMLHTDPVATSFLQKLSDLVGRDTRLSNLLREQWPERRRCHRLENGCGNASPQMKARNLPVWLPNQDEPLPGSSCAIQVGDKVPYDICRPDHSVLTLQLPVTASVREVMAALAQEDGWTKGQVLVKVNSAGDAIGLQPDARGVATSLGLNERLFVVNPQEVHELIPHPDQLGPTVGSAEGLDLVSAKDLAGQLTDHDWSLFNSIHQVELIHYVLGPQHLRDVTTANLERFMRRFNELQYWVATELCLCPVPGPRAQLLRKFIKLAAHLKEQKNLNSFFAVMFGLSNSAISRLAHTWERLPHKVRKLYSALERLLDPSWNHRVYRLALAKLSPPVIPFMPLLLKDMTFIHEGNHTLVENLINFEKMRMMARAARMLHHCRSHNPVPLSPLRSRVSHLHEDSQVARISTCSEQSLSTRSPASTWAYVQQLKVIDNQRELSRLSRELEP
Procedure: FIG. 2. Characterization of regulation and signaling properties of ras/rap chimeras. A) Proliferative responses of ras, rap, and ras/rap measured in R-SAT. 4 ng/well each of wild-type or GTPase deficient (V 12) mutants of ras, rap1A, or ras/rap1A (24) were transfected and analyzed for proliferative responses as described in Methods. B & C) Rap-selective exchange factors activate cellular proliferation in a ras/rap chimera dependent manner. B) Synergy of EPAC with ras/rap chimeras. Two ng per well of the rap selective exchange factor EPAC was co-expressed with 20 ng per well of either rap1B, ras/rap1A, ras/rap1B, ras/rapAA, or control vector and analyzed for proliferative responses as described above. C) Synergy of C3G with ras/rap chimeras. Twenty ng per well of the rap selective exchange factor C3G (68) was co-expressed with 20 ng per well of either rap1B, ras/rap1A, ras/rap1B, ras/rapAA, or control vector and analyzed for proliferative responses as described above. D) The indicated doses (ng per well) of EPAC were co-expressed with 20 ng per well of ras/rapAA in the presence or absence of 250 uM 8-Br cAMP and analyzed for proliferative responses as described above. […] Either 10 ng per well of control vector, ras or ras/rapAA was co-expressed with EPAC (2 ng per well), C3G (10 ng per well), or Sos2 (10 ng per well) and analyzed for proliferative responses. […]

5HT1E serotonin receptor = target: T2, 5HT1E serotonin receptor (Homo sapiens, UniProt P28566); assay: R-SAT cellular proliferation, 5HT1E co-expressed with ras/rapAA, with or without pertussis toxin; conditions: 100 ug/ml pertussis toxin; agonist BRL54443; NIH 3T3 cells
T2 construct: expressed in transfected cells; host or cells: NIH 3T3
Procedure: (§1) FIG. 4. Pertussis toxin sensitivity of ras/rap dependent proliferative responses to Gs-coupled and Gi-coupled GPCRs. A) D1 (4 ng per well) and ras/rapAA (20 ng per well) were co-expressed and analyzed for proliferative responses in the presence or absence of 100 ug/ml pertussis toxin in the presence of the indicated concentrations of SKF81297. B) 5HT1E (20 ng per well) and ras/rapAA (20 ng per well) were co-expressed and analyzed for proliferative responses in the presence or absence of 100 ug/ml pertussis toxin in the presence of the indicated concentrations of BRL54443. C) D2 (4 ng/well), alpha2C (20 ng/well), and SST5 (4 ng/well) were each expressed with ras/rapAA (20 ng/well), incubated with the indicated concentrations of ligand and either with or without 100 ng/ml pertussis toxin (PTX) and analyzed for proliferative responses as described above. Control represents the receptors expressed alone.
(§2) Functional assays. […] After five days in culture β-galactosidase levels were measured essentially as described (35). […] After 3 hr the plates were read at 420 nm on a plate-reader (Bio-Tek EL 310 or Molecular Devices). […]

D1 dopamine receptor = target: T3, D1 dopamine receptor (Homo sapiens, UniProt P21728); assay: R-SAT cellular proliferation, D1 co-expressed with ras/rapAA, with or without pertussis toxin; conditions: 100 ug/ml pertussis toxin; agonist SKF81297; NIH 3T3 cells
T3 construct: expressed in transfected cells; host or cells: NIH 3T3
Procedure: as §1, §2

GPR12 = target: T4, GPR12 (Homo sapiens, UniProt P47775); assay: R-SAT constitutive proliferation, orphan receptor with ras/rapAA and ACII, with or without pertussis toxin; conditions: PTX, 100 ng/ml
T4 construct: expressed in transfected cells
T4 sequence (P47775 1-334): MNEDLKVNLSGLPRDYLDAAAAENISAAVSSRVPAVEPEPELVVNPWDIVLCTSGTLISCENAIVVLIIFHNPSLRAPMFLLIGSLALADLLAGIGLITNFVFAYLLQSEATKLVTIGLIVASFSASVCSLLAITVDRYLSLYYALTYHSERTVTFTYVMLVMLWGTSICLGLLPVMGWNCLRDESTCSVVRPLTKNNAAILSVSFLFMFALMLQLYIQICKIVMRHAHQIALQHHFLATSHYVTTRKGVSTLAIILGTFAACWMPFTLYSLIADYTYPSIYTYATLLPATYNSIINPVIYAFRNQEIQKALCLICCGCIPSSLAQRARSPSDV
Procedure: (§3) FIG. 7. Functional validation and characterization of orphan GPCRs using helper genes. A) The indicated receptors were expressed at two doses either alone, with ras/rapAA (20 ng/well) and ACII (2 ng/well), or Gαq (4 ng/well) and analyzed for constitutive stimulation of cellular proliferation as described above. Control represents the transfection of the same helper genes with vector substituting for receptor. The transfections were all balanced with vector to ensure the same total amount of DNA was transfected in each case. PI hydrolysis assays were carried out using tsa cells transfected with 20 ng/well of each receptor as described in Methods. B) The indicated receptors were expressed at two doses either alone, with ras/rapAA (20 ng/well) and ACII (2 ng/well), or Gαq (4 ng/well) and analyzed for constitutive stimulation of cellular proliferation as described above. Control represents the transfection of the same helper genes with vector substituting for receptor. The transfections were all balanced with vector to ensure the same total amount of DNA was transfected in each case. Cyclic AMP accumulation assays were carried out using HEK293 cells transfected with 20 ng/well of each receptor as described in Methods. C) The indicated receptors were expressed at with ras/rapAA (20 ng/well) and ACII (2 ng/well), incubated in the presence or absence of pertussis toxin (PTX, 100 ng/ml) and analyzed for constitutive stimulation of cellular proliferation as described above. Control represents the transfection of the same helper genes with vector substituting for receptor. D) The indicated receptors were tested for stimulation of cyclic AMP production as described in the experimental methods.
as §2

GPR3 = target: T5, GPR3 (Homo sapiens, UniProt P46089); assay: as above; conditions: PTX, 100 ng/ml
T5 construct: expressed in transfected cells
Procedure: as §3, §2

GPR6 = target: T6, GPR6 (Homo sapiens, UniProt P46095); assay: as above; conditions: PTX, 100 ng/ml
T6 construct: expressed in transfected cells
Procedure: as §3, §2

T3 sequence (P21728 whole entry): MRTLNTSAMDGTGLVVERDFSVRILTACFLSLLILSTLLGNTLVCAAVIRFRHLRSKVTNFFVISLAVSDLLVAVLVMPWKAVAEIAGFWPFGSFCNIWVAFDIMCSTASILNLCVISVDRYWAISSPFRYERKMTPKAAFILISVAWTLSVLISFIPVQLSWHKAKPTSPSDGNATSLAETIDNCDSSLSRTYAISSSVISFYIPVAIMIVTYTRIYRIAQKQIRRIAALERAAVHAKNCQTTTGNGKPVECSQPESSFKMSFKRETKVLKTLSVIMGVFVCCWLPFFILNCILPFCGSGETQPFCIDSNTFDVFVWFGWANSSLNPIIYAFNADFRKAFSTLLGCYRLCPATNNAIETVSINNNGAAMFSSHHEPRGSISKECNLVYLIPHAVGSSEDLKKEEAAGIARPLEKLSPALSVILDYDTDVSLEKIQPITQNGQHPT
T6 sequence (P46095 whole entry, species assumed): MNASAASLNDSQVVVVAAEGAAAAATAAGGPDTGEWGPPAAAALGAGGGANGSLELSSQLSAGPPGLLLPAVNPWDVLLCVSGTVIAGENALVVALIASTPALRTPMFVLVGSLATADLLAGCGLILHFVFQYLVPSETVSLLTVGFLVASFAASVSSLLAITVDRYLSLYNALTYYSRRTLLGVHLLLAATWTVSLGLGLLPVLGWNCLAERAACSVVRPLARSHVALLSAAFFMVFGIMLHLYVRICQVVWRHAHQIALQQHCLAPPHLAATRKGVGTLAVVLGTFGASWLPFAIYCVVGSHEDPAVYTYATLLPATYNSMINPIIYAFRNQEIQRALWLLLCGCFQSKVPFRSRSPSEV
T2 sequence (P28566 whole entry): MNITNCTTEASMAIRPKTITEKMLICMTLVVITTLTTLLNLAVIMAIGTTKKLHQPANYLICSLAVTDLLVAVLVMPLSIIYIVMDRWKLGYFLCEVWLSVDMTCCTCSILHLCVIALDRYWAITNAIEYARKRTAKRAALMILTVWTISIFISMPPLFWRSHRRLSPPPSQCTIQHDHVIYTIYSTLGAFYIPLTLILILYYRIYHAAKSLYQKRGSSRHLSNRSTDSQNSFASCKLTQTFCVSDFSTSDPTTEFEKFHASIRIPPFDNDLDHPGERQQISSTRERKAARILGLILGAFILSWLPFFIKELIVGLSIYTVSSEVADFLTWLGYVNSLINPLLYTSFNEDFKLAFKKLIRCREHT
T5 sequence (P46089 whole entry, species assumed): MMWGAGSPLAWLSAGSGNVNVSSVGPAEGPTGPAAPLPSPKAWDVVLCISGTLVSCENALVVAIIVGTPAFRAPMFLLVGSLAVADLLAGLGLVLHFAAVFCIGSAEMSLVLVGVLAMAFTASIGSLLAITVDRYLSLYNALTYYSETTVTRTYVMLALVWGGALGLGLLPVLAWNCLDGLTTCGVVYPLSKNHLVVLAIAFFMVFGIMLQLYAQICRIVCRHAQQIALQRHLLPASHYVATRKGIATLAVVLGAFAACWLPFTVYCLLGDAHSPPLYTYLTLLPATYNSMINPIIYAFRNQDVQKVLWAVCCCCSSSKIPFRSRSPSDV

Row | Compound | stimulation of EPAC to induce ras/rap-dependent responses (EPAC) | effect on ras/rap dependent responses to 5HT1E (5HT1E serotonin receptor) | effect on ras/rap dependent responses to D1 (D1 dopamine receptor) | effect on helper gene dependent constitutive response to GPR12 (GPR12) | effect on helper gene dependent constitutive response to GPR3 (GPR3) | effect on helper gene dependent constitutive response to GPR6 (GPR6)
1 | Nc1ncnc2c1nc(Br)n2[C@@H]1O[C@@H]2COP(=O)(O)O[C@H]2[C@H]1O [8-Br cAMP] | stimulated | – | – | – | – | –
2 | pertussis toxin | – | completely blocked | did not block, and slightly increased | hardly affected | hardly affected | significantly blunted
